Laboratory results taken from patent US20210283163A1, “COMPOSITIONS AND METHODS FOR THE TREATMENT OF ACUTE AND CHRONIC PRURITIS” (Duke University, priority 2018, published 2021).

Columns and labels:
[1] = test system: small-diameter DRG neurons; assay: Patch clamp, inward currents and action potentials in small-diameter mouse DRG neurons; format: cell-based; settings: for small-diameter neurons responding with inward currents or action potentials: AITC 15/90, miR-711 15/130
Experimental: Primary Cultures of Mouse and Human Sensory Neurons. DRGs or TGs were removed aseptically from mice (4-6 weeks) and incubated with collagenase (1.25 mg/mL, Roche)/dispase-II (2.4 units/mL, Roche) at 37° C. for 90 min, then digested with 0.25% trypsin for 8 min at 37° C., followed by 0.25% trypsin inhibitor. Cells were mechanically dissociated with a flame polished Pasteur pipette in the presence of 0.05% DNase I (Sigma). DRG cells were plated on glass coverslips and grown in a neurobasal defined medium (with 2% B27 supplement, Invitrogen) with 5 μM AraC and 5% CO2 at 36.5° C. DRG neurons were grown for 24 hr before use.
(§1) Whole-Cell Patch Clamp Recordings in HEK293 Cells, CHO Cells, and DRG Neurons. Whole-cell patch clamp recordings were performed at room temperature using an Axopatch-200B amplifier (Axon Instruments) with a Digidata 1440B (Axon Instruments). In this study, we only examined small-diameter mouse DRG neurons (<25 μM) and small-diameter human DRG neurons (<55 μM). The patch pipettes were pulled from borosilicate capillaries (World Precision Instruments) using a P-97 Flaming/Brown micropipette puller (Sutter Instrument). Pipette resistance was 4-6 MΩ for whole-cell and outside-out recording. For inward current recordings in mouse and human DRG neurons, HEK293 cells, and CHO cells, the internal solution contains (in mM): 140 CsCl, 10 EGTA, 10 HEPES, and 2 Mg-ATP, adjusted to pH 7.3 with CsOH. Whole cell recordings were performed in an extracellular solution that contains (in mM): 140 NaCl, 5 KCl, 2 MgCl2, 10 HEPES, and 10 glucose, adjusted to pH 7.4 with NaOH and osmolarity to 300-310 mOsm. […] Action potential recordings were performed in small-diameter DRG neurons, with the following solutions: i) internal pipette solution contains: 126 mM K-gluconate, 10 mM NaCl, 1 mM MgCl2, 10 mM EGTA, 10 mM HEPES and 2 mM Na-ATP, adjusted to pH 7.4 with KOH and osmolarity to 295-300 mOsm), and ii) extracellular solution contains: 140 mM NaCl, 5 mM KCl, 2 mM MgCl2, 2 mM CaCl2, 10 mM HEPES, 10 mM glucose, adjusted to pH 7.4 with KOH.

[2] = test system: DRG neurons; assay: Calcium imaging in cultured DRG neurons of Pirt-GCaMP3 mice; format: cell-based, mouse; settings: for DRG neurons showing Ca2+ increase / responses: 544 neurons from 3 mice
Experimental: (§2) Primary Cultures of Mouse and Human Sensory Neurons. […] Cells were mechanically dissociated with a flame polished Pasteur pipette in the presence of 0.05% DNase I (Sigma).
(§3) Ca^2+ Imaging. […] The imaging buffer includes 140 mM NaCl, 10 mM D-(+)-Glucose, 1 mM MgCl2, 2 mM CaCl2, 5 mM KCl, 10 mM HEPES, pH=7.4, osmolarity=320 mOsm/L. Calcium signals were measured using green emitted light in a 3 s interval. Ca ^2+ signal amplitudes were presented as ΔF/F0=(Ft−F0)/F0 as ratio of fluorescence difference (Ft−F0) to basal value (F0). The average fluorescence intensity in the baseline period was taken as F0. Ca ^2+ imaging was also analyzed in HEK293-TRPA1 cell line after loading cells with […] fura2-AM (Invitrogen) for 40 min in the Ca^2+ imaging buffer. Ca^2+ imaging protocol was a ratio metric method with 340/380-nm wavelength light for dual excitation. Data were presented as ΔR/R0, determined as the fraction ΔR (Rt−R0) of the increase of a given ratio over baseline ratio (R0).

[3] = target: hTRPA1 (Homo sapiens, UniProt O75762); assay: Whole-cell patch clamp, inward currents in HEK293 cells expressing hTRPA1; format: cell-based
hTRPA1, sequence (O75762 whole entry): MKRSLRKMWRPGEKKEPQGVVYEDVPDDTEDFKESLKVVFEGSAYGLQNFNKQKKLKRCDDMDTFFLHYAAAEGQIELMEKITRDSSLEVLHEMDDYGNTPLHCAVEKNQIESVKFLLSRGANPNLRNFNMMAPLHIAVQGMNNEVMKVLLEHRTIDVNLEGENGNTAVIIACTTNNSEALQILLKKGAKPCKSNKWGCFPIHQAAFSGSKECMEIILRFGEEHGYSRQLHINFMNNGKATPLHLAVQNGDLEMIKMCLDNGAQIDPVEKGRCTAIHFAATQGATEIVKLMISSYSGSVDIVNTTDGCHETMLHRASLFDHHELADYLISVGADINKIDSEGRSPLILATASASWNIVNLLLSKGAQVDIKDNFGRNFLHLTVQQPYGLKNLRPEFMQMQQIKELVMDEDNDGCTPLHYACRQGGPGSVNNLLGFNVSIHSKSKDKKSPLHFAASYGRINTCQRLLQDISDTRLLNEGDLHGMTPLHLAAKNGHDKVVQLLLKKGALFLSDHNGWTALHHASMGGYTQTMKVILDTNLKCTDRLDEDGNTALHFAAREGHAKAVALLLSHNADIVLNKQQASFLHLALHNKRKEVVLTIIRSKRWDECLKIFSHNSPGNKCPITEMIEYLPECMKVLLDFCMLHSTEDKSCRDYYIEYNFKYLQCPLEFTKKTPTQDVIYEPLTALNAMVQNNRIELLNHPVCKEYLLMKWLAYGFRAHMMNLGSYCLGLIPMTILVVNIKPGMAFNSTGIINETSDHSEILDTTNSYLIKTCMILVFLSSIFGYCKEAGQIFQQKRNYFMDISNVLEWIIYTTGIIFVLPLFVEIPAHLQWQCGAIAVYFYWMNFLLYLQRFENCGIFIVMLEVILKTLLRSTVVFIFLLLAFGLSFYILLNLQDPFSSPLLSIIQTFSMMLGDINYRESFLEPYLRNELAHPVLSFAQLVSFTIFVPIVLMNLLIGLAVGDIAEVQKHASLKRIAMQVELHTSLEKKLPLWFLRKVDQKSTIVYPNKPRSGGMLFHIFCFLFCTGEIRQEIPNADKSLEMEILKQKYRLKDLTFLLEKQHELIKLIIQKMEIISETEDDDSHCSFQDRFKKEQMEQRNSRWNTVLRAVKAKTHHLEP
Experimental: Cell Culture and Transfection. CD4^+ Myla cell line was cultured in RPMI 1640 media (GIBCO), supplemented with 2 mM Glutamine (GIBCO), 100 U/mL IL-2 (Sigma), 100 U/mL IL-4 (Sigma), and 10% human AB serum (Sigma). HuT 102 cell line was cultured in RPMI 1640 supplemented with pyruvate, HEPES, and 10% (v/v) fetal bovine serum (HyClone). HEK293-hTRPA1 stable cell line was cultured in MEM (GIBCO) containing 2 mM Glutamine, 4 μg/mL Blasticidin, 10% FBS (v/v). B16 and CHO cells were cultured in high glucose (4.5 g/L) Dulbecco's Modified Eagle's Medium (GIBCO) containing 10% (v/v) fetal bovine serum (GIBCO). Culture media were supplemented with 50 units/mL of penicillin and 50 μg/mL streptomycin, and cultures were maintained with 5% CO2 in 37° C. incubator. Transfection (2 μg cDNA) was performed with Lipofectamine™ 2000 Reagent (Invitrogen) at 80% confluency and the transfected cells were cultured in the same media for 48 hr before electrophysiological and biochemical studies.
as §1

[4] = test system: TG neurons; assay: Calcium imaging in TG neurons of Pirt-GCaMP3 mice; format: cell-based, mouse; settings: histamine 500 μM, CQ 1000 μM, AITC 200 μM; for TG neurons responding (calcium): miR-711 50 μM, 204 neurons
Experimental: as §2, §3

[5] = miR-711 50 μM, histamine 500 μM, CQ 1,000 μM, AITC 200 μM

Compound: CCC(=N\O)/C(C)=C/c1ccc(F)cc1 [A967079, (1E,3E)-1-(4-Fluorophenyl)-2-methyl-1-pentene-3-one oxime]
- block of miR-711-induced action potentials ([1]; A967079 10 μM): blocked
- block of miR-711-induced inward currents in DRG neurons ([1]; A967079 10 μM): blocked
- block of miR-711-evoked calcium responses in DRG neurons ([2]; miR-711 50 μM, A967079 10 μM): completely blocked
- block of miR-711-evoked currents ([3]; A967079 10 and 50 μM): dose-dependently blocked

Compound: C=CCN=C=S [AITC]
- small-diameter neurons responding with inward currents or action potentials [1]: 16.7%
- miR-711-responsive DRG neurons that also responded ([2]; histamine 500 μM, CQ 1,000 μM, AITC 200 μM): all
- DRG neurons showing Ca2+ increase / responses [2, 5]: 22.6%
- miR-711-responsive TG neurons that also responded [4]: 100%
- TG neurons responding (calcium) [4]: 32.4%

Compound: NH2-FRNELAYPVLTFGQL-COOH (H-FRNELAYPVLTFGQL-OH) [blocking peptide]
- effect on AITC-induced inward current ([3]; peptide 25 μM): did not affect
- inhibition of miR-711-induced TRPA1 inward currents ([3]; peptide 25 μM): suppressed

Compound: miR-711: mmu-miR-711: gggacccggggagagauguaag (SEQ ID NO: 5) (GGGACCCGGGGAGAGAUGUAAG; chemistry not given here)
- action potentials in small-diameter DRG neurons ([1]; 10 μM, WT mice): induced action potentials
- inward currents in small-diameter DRG neurons ([1]; 10 μM, WT mice): induced rapid inward currents
- small-diameter neurons responding with inward currents or action potentials [1]: 11.5%
- miR-711-induced excitation (action potentials) ([1]; TRPA1-deficient neurons): lost
- miR-711-induced inward currents in DRG neurons of knockout mice ([1]; Trpa1 knockout mice): abolished
- action potential duration ([1]; compared with AITC): shorter duration
- after-hyperpolarization of the action potentials ([1]; compared with AITC): did not differ
- calcium signaling in DRG neurons ([2]; 10 μM): did not evoke meaningful calcium signaling
- DRG neurons showing Ca2+ increase / responses [2, 5]: 3.9%
- DRG neurons showing calcium responses ([2]; miR-711 50 μM, 15 of 310 neurons): 4.8%
- desensitization of TRPA1 after second application ([3]; 10 μM): did not induce obvious desensitization
- current-voltage relationship ([3]; 10 μM, I/V curve): outward rectification
- reversal potential of evoked current ([3]; 10 μM, I/V curve): 0 mV
- inward currents ([3]; bath application, miRNAs and core sequence 10 μM, AITC 50 μM): produced inward currents
- potency for inducing TRPA1 activation (dose-response curve) ([3]; compared with AITC): more potent than AITC
- latency of inward currents ([3]; miR-711 10 μM versus AITC 50 μM, bath perfusion): shorter than that of AITC
- TG neurons responding (calcium) [4]: 12.3%
